Measured values: PubChem BioAssay (NCI)
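Where inhibition never reached the appropriate level, the endpoint shown equals the highest concentration tested. Otherwise, values were interpolated linearly from a five-concentration, 48-hour dose response in 96-well plates. TGI: concentration producing complete growth inhibition.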

Columns and labels:
Assay in all cases: NCI anticancer screen, dose series, 48 h
[1] = system: HL-60(TB) leukemia
[2] = system: SW-620 colon
[3] = system: LOX IMVI melanoma
[4] = system: SK-MEL-28 melanoma
[5] = system: CCRF-CEM leukemia
[6] = system: MOLT-4 leukemia
[7] = system: SF-539 CNS
[8] = system: HOP-62 NSCLC
[9] = system: NCI-H460 lung

## CCCNCc1nc2ccc(Br)cc2c(=O)n1CCC
[1]
  TGI: 30.8 µM
[2]
  TGI: 28.3 µM
[3]
  TGI: 17.7 µM
[4]
  TGI: 29 µM
[5]
  TGI: 36.3 µM
[6]
  TGI: > 100 µM
[7]
  TGI: 29.5 µM
[8]
  TGI: 36.9 µM

## N=C(N)SCCc1cn2ccccc2n1
[9]
  TGI: > 100 µM
[1]
  TGI: > 100 µM
[2]
  TGI: > 100 µM
[3]
  TGI: > 100 µM
[4]
  TGI: > 100 µM
[5]
  TGI: > 100 µM
[6]
  TGI: > 100 µM
[7]
  TGI: > 100 µM
[8]
  TGI: > 100 µM

## CC1=CC(C)(C)N=C2SC(c3ccc(Cl)cc3)=NN12
[9]
  TGI: > 100 µM
[1]
  TGI: 32.5 µM
[2]
  TGI: > 100 µM
[3]
  TGI: > 100 µM
[4]
  TGI: > 100 µM
[5]
  TGI: > 100 µM
[6]
  TGI: 51 µM
[7]
  TGI: > 100 µM
[8]
  TGI: > 100 µM

## O=C1CCCC/C1=C/C=C/c1ccccc1
[9]
  TGI: > 100 µM
[1]
  TGI: 62.8 µM
[2]
  TGI: > 100 µM
[3]
  TGI: > 100 µM
[4]
  TGI: > 100 µM
[5]
  TGI: > 100 µM
[6]
  TGI: > 100 µM
[7]
  TGI: > 100 µM

## CC(C)C(=O)N[C@@H](C)C(=O)N(Cc1ccc2ccccc2c1)N=O
[9]
  TGI: > 100 µM
[2]
  TGI: > 100 µM
[3]
  TGI: > 100 µM
[4]
  TGI: > 100 µM
[5]
  TGI: > 100 µM
[6]
  TGI: > 100 µM
[7]
  TGI: > 100 µM
[8]
  TGI: > 100 µM

## CCCCCCCCCCCC(=O)OCC1OC(n2cc(F)c(=O)[nH]c2=O)C(N)C(OC(=O)CCCCCCCCCCC)C1O (stereo not drawn)
[9]
  TGI: > 100 µM
[1]
  TGI: > 100 µM
[2]
  TGI: > 100 µM
[3]
  TGI: > 100 µM
[4]
  TGI: > 100 µM
[5]
  TGI: > 100 µM
[6]
  TGI: > 100 µM
[7]
  TGI: > 100 µM
[8]
  TGI: > 100 µM

## CC1(O)CC2C(CC1SCCO)C2(C)C (stereo not drawn)
[9]
  TGI: > 100 µM
[1]
  TGI: > 100 µM
[4]
  TGI: > 100 µM
[5]
  TGI: > 100 µM
[6]
  TGI: > 100 µM
[7]
  TGI: > 100 µM

## Cc1ccccc1C(=O)Oc1ccc(Oc2ccccc2)cc1
[9]
  TGI: > 100 µM
[1]
  TGI: > 100 µM
[2]
  TGI: > 100 µM
[5]
  TGI: > 100 µM
[6]
  TGI: > 100 µM
[7]
  TGI: > 100 µM
[8]
  TGI: > 100 µM

## Nc1ccc(Nc2nc(F)nc(-c3c4ccccc4c4n3CCS4)n2)cc1
[2]
  TGI: 27.9 µM
[3]
  TGI: 24.6 µM
[4]
  TGI: 33.3 µM
[5]
  TGI: 62.2 µM
[6]
  TGI: 50.9 µM
[7]
  TGI: 27.6 µM
[8]
  TGI: 31.3 µM

## Cc1ccc(C)c(NC(=O)c2cc(-c3ccc([N+](=O)[O-])cc3)nc(N)n2)c1
[9]
  TGI: > 100 µM
[1]
  TGI: > 100 µM
[2]
  TGI: > 100 µM
[3]
  TGI: > 100 µM
[4]
  TGI: > 100 µM
[5]
  TGI: > 100 µM
[6]
  TGI: > 100 µM
[7]
  TGI: > 100 µM
[8]
  TGI: > 100 µM

## CCOC(=O)/N=C(\N)SCc1ccccc1
[9]
  TGI: > 100 µM
[1]
  TGI: > 100 µM
[2]
  TGI: > 100 µM
[3]
  TGI: > 100 µM
[4]
  TGI: > 100 µM
[5]
  TGI: > 100 µM
[6]
  TGI: > 100 µM
[7]
  TGI: > 100 µM
[8]
  TGI: > 100 µM

## COc1ccc(C(c2ccc(C(C)C)cc(=O)c2O)c2c(O)cc3oc(-c4ccccc4)cc(=O)c3c2O)cc1 (stereo not drawn)
[9]
  TGI: 15.8 µM
[1]
  TGI: 28.8 µM
[2]
  TGI: > 100 µM
[3]
  TGI: 47.7 µM
[4]
  TGI: > 100 µM
[5]
  TGI: > 100 µM
[6]
  TGI: 48.4 µM
[7]
  TGI: 21.5 µM
[8]
  TGI: 9.67 µM

## C=C1CC(CCCl)(c2ccccc2)OC1=O (stereo not drawn)
[9]
  TGI: > 100 µM
[1]
  TGI: 44.8 µM
[2]
  TGI: 39.5 µM
[3]
  TGI: > 62.2 µM
[4]
  TGI: 22.2 µM
[5]
  TGI: 49.2 µM
[6]
  TGI: 49.9 µM
[7]
  TGI: > 62 µM
[8]
  TGI: > 100 µM

## Cc1c(C(=O)/C=C/c2ccc(Cl)cc2)[n+](=O)c2ccccc2n1[O-]
[9]
  TGI: 29.1 µM
[1]
  TGI: 35.2 µM
[2]
  TGI: 21.9 µM
[3]
  TGI: 20.5 µM
[4]
  TGI: 32.6 µM
[5]
  TGI: > 100 µM
[6]
  TGI: 45.6 µM
[7]
  TGI: 25.7 µM
[8]
  TGI: 63.5 µM

## CC(c1ccc(Br)cc1)C(C(=O)O)C(=O)O (stereo not drawn)
[9]
  TGI: > 100 µM
[1]
  TGI: > 100 µM
[2]
  TGI: > 100 µM
[3]
  TGI: > 100 µM
[4]
  TGI: > 100 µM
[5]
  TGI: > 100 µM
[6]
  TGI: > 100 µM
[8]
  TGI: > 100 µM

## C(=C\c1csnn1)/c1cccnc1
[9]
  TGI: > 100 µM
[1]
  TGI: > 100 µM
[2]
  TGI: > 100 µM
[3]
  TGI: > 100 µM
[4]
  TGI: > 100 µM
[6]
  TGI: > 100 µM
[7]
  TGI: > 100 µM
[8]
  TGI: > 100 µM

## O=c1c2ccc3cccc4c(=O)cc(c5ccccc15)-c2c34
[9]
  TGI: > 100 µM
[1]
  TGI: > 100 µM
[2]
  TGI: > 100 µM
[3]
  TGI: > 100 µM
[4]
  TGI: > 100 µM
[5]
  TGI: > 100 µM
[6]
  TGI: > 100 µM
[8]
  TGI: > 100 µM

## Cn1c(CCC#N)nc2ccc(Br)cc2c1=O
[9]
  TGI: > 100 µM
[1]
  TGI: > 100 µM
[2]
  TGI: > 100 µM
[3]
  TGI: > 100 µM
[4]
  TGI: > 100 µM
[5]
  TGI: > 100 µM
[6]
  TGI: > 100 µM
[7]
  TGI: > 100 µM
[8]
  TGI: > 100 µM

## O=c1/c(=C/c2ccc(Cl)cc2Cl)sc2nc3ccccc3n12
[9]
  TGI: > 100 µM
[1]
  TGI: > 100 µM
[2]
  TGI: > 100 µM
[3]
  TGI: > 100 µM
[4]
  TGI: > 100 µM
[5]
  TGI: > 100 µM
[6]
  TGI: > 100 µM
[7]
  TGI: > 100 µM
[8]
  TGI: > 100 µM
